Assay results from PubChem BioAssay AID256 (DTP/NCI, 2004).
“And” between values parts separate entries of the source, which are not always exact repeats. Equal values may be shown once. Toxic doses and inconclusive results are not listed. How the source made its calls: active means survival T/C of 150% or more; inactive means T/C below 125% in these data.

Test system: CD2F1 mice, L1210 leukemia ip, survival T/C
Test: NCI In Vivo Anticancer Drug Screen. Data for tumor model L1210 Leukemia (intraperitoneal) in CD2F1 (CDF1) mice
Conditions: higher = longer survival
How it was run: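 Mice carrying a transplanted tumor received test compound or vehicle alone. The value is the measurement in the treated group divided by that in the vehicle-treated control group.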

[1] = endpoint: mean survival time, dose: 12.5 mg/kg/injection, schedule: Q01DX009 (ip), vehicle: saline
[2] = endpoint: mean survival time, dose: 25.0 mg/kg/injection, schedule: Q01DX009 (ip), vehicle: saline
[3] = endpoint: mean survival time, dose: 50.0 mg/kg/injection, schedule: Q01DX009 (ip), vehicle: saline
[4] = endpoint: mean survival time, dose: 100.0 mg/kg/injection, schedule: Q01DX009 (ip), vehicle: saline with Tween-80
[5] = endpoint: mean survival time, dose: 100.0 mg/kg/injection, schedule: Q04DX003 (ip), vehicle: saline with Tween-80
[6] = endpoint: mean survival time, dose: 200.0 mg/kg/injection, schedule: Q01DX009 (ip), vehicle: saline with Tween-80
[7] = endpoint: mean survival time, dose: 200.0 mg/kg/injection, schedule: Q04DX003 (ip), vehicle: saline with Tween-80
[8] = endpoint: mean survival time, dose: 18.75 mg/kg/injection, schedule: Q01DX009 (ip), vehicle: Klucel (hydroxypropylcellulose) (HPC)
[9] = endpoint: mean survival time, dose: 37.5 mg/kg/injection, schedule: Q01DX009 (ip), vehicle: Klucel (hydroxypropylcellulose) (HPC)
[10] = endpoint: mean survival time, dose: 50.0 mg/kg/injection, schedule: Q01DX009 (ip), vehicle: Klucel (hydroxypropylcellulose) (HPC)
[11] = endpoint: mean survival time, dose: 100.0 mg/kg/injection, schedule: Q01DX009 (ip), vehicle: Klucel (hydroxypropylcellulose) (HPC)
[12] = endpoint: mean survival time, dose: 25.0 mg/kg/injection, schedule: Q01DX009 (ip), vehicle: saline with Tween-80
[13] = endpoint: mean survival time, dose: 50.0 mg/kg/injection, schedule: Q01DX009 (ip), vehicle: saline with Tween-80

Measured: T/C

Cc1ccccc1OS(=O)(=O)c1ccccc1
inactive: endpoint: mean survival time, dose: 100.0 mg/kg/injection, schedule: Q01DX009 (ip), vehicle: acetone 98 % of control | endpoint: mean survival time, dose: 100.0 mg/kg/injection, schedule: Q04DX003 (ip), vehicle: acetone 100 % of control | endpoint: mean survival time, dose: 200.0 mg/kg/injection, schedule: Q01DX009 (ip), vehicle: acetone 98 % of control | endpoint: mean survival time, dose: 200.0 mg/kg/injection, schedule: Q04DX003 (ip), vehicle: acetone 94 % of control | endpoint: mean survival time, dose: 400.0 mg/kg/injection, schedule: Q01DX009 (ip), vehicle: acetone 96 % of control | endpoint: mean survival time, dose: 400.0 mg/kg/injection, schedule: Q04DX003 (ip), vehicle: acetone 96 % of control

O=S(=O)(O)SCCN1CCCCC1
inactive: [1] 104 % of control | endpoint: mean survival time, dose: 12.5 mg/kg/injection, schedule: Q04DX003 (ip), vehicle: saline sonified 102 % of control | [2] 106 % of control | endpoint: mean survival time, dose: 25.0 mg/kg/injection, schedule: Q04DX003 (ip), vehicle: saline sonified 101 % of control | [3] 104 % of control | endpoint: mean survival time, dose: 50.0 mg/kg/injection, schedule: Q04DX003 (ip), vehicle: saline sonified 91 % of control

NC(=S)c1ccc(C(N)=S)cc1
inactive: endpoint: mean survival time, dose: 100.0 mg/kg/injection, schedule: Q01DX001 (ip), vehicle: Klucel (hydroxypropylcellulose) (HPC) 89 % of control | [4] 94 % of control | [5] 97 % of control | endpoint: mean survival time, dose: 200.0 mg/kg/injection, schedule: Q01DX001 (ip), vehicle: Klucel (hydroxypropylcellulose) (HPC) 89 % of control | [6] 93 % of control | [7] 97 % of control | endpoint: mean survival time, dose: 400.0 mg/kg/injection, schedule: Q01DX009 (ip), vehicle: saline with Tween-80 90 % of control | endpoint: mean survival time, dose: 400.0 mg/kg/injection, schedule: Q04DX003 (ip), vehicle: saline with Tween-80 98 % of control

CN(C)N=Nc1ccc(S(N)(=O)=O)cc1
inactive: [8] 106 % of control | [9] 124 % of control | endpoint: mean survival time, dose: 150.0 mg/kg/injection, schedule: Q01DX009 (ip), vehicle: Klucel (hydroxypropylcellulose) (HPC) 118 % of control

CC(=O)Oc1cc(-c2ccccc2)c(OC(C)=O)c(N=[N+]=[N-])c1C
inactive: endpoint: mean survival time, dose: 100.0 mg/kg/injection, schedule: Q01DX001 (ip), vehicle: saline with Tween-80 101 % of control | endpoint: mean survival time, dose: 200.0 mg/kg/injection, schedule: Q01DX001 (ip), vehicle: saline with Tween-80 108 % of control

[CH3][Pb]([CH3])([CH3])[NH]C#N
inactive: endpoint: mean survival time, dose: 2.5 mg/kg/injection, schedule: Q01DX009 (ip), vehicle: saline 98 % of control | endpoint: mean survival time, dose: 5.0 mg/kg/injection, schedule: Q01DX009 (ip), vehicle: saline 87 % of control

COc1ccc(NC(=O)Oc2cccnc2)c(Cl)c1
inactive: [10] 100 % of control | [11] 104 % of control

O=P(Cc1ccccc1)(Cc1ccccc1)c1ccccc1
inactive: endpoint: mean survival time, dose: 75.0 mg/kg/injection, schedule: Q01DX001 (ip), vehicle: saline 95 % of control | endpoint: mean survival time, dose: 150.0 mg/kg/injection, schedule: Q01DX001 (ip), vehicle: saline 93 % of control | endpoint: mean survival time, dose: 300.0 mg/kg/injection, schedule: Q01DX001 (ip), vehicle: saline 100 % of control

CCOCCNCc1ccc(Cl)cc1Cl
inactive: [5] 91 % of control | [7] 94 % of control

COC1=CC2c3ccccc3C1C1C(OC)=CC2c2ccccc21
inactive: [12] 96 % of control | [13] 98 % of control | [4] 96 % of control | [5] 88 % of control

COc1ccc(N=NN(C)C(=O)c2ccccc2)cc1
inactive: [10] 107 % of control | [11] 117 % of control
active: endpoint: mean survival time, dose: 400.0 mg/kg/injection, schedule: Q01DX009 (ip), vehicle: Klucel (hydroxypropylcellulose) (HPC) 161 % of control

O=NC1C2CCC(C2)C1Cl (stereo not drawn)
inactive: endpoint: mean survival time, dose: 5.0 mg/kg/injection, schedule: Q01DX001 (ip), vehicle: saline 98 % of control | endpoint: mean survival time, dose: 10.0 mg/kg/injection, schedule: Q01DX001 (ip), vehicle: saline 97 % of control | endpoint: mean survival time, dose: 20.0 mg/kg/injection, schedule: Q01DX001 (ip), vehicle: saline 95 % of control

CCN(C(=O)CCl)C(C)(C)C(SSSC(c1ccc(Cl)cc1)C(C)(C)N(CC)C(=O)CCl)c1ccc(Cl)cc1 (stereo not drawn)
inactive: [1] 96 % of control | [2] 102 % of control | [3] 95 % of control and 106 % of control | endpoint: mean survival time, dose: 100.0 mg/kg/injection, schedule: Q01DX009 (ip), vehicle: saline 100 % of control

NC(=S)/N=C\C(CC(O)C(O)C(O)CO)=N\NC(N)=S (stereo not drawn)
inactive: endpoint: mean survival time, dose: 6.25 mg/kg/injection, schedule: Q01DX009 (ip), vehicle: saline with Tween-80 96 % of control | endpoint: mean survival time, dose: 12.5 mg/kg/injection, schedule: Q01DX009 (ip), vehicle: saline with Tween-80 96 % of control | [12] 95 % of control and 100 % of control | [13] 93 % of control and 101 % of control | [4] 101 % of control | [6] 86 % of control

CONC(=O)c1ccccc1N=NN(C)C
inactive: [8] 117 % of control and 107 % of control | [9] 117 % of control and 109 % of control | endpoint: mean survival time, dose: 75.0 mg/kg/injection, schedule: Q01DX009 (ip), vehicle: Klucel (hydroxypropylcellulose) (HPC) 101 % of control

CC(C)(CO)C(O)C(=O)NCCS(=O)c1ccc(F)cc1 (stereo not drawn)
inactive: endpoint: mean survival time, dose: 100.0 mg/kg/injection, schedule: Q04DX003 (ip), vehicle: other 100 % of control | endpoint: mean survival time, dose: 200.0 mg/kg/injection, schedule: Q04DX003 (ip), vehicle: other 96 % of control | endpoint: mean survival time, dose: 400.0 mg/kg/injection, schedule: Q04DX003 (ip), vehicle: other 100 % of control

CC(=O)C1CCC2C3CC=C4CC(SC(=N)N)CCC4(C)C3CCC12C (stereo not drawn)
inactive: endpoint: mean survival time, dose: 75.0 mg/kg/injection, schedule: Q01DX001 (ip), vehicle: steriod suspending solution 102 % of control | endpoint: mean survival time, dose: 150.0 mg/kg/injection, schedule: Q01DX001 (ip), vehicle: steriod suspending solution 104 % of control | endpoint: mean survival time, dose: 300.0 mg/kg/injection, schedule: Q01DX001 (ip), vehicle: steriod suspending solution 91 % of control

NC(=S)N/N=C/c1ccc(OC(=O)COc2ccccc2)cn1
active: endpoint: mean survival time, dose: 400.0 mg/kg/injection, schedule: Q04DX002 (ip), vehicle: saline with Tween-80 152 % of control and 155 % of control | endpoint: mean survival time, dose: 800.0 mg/kg/injection, schedule: Q04DX002 (ip), vehicle: saline with Tween-80 174 % of control
inactive: endpoint: mean survival time, dose: 88.0 mg/kg/injection, schedule: Q04DX003 (ip), vehicle: saline with Tween-80 123 % of control | endpoint: mean survival time, dose: 100.0 mg/kg/injection, schedule: Q04DX002 (ip), vehicle: saline with Tween-80 118 % of control | endpoint: mean survival time, dose: 200.0 mg/kg/injection, schedule: Q04DX002 (ip), vehicle: saline with Tween-80 122 % of control | [7] 118 % of control

CC[C@@]1(O)C(=O)OCc2c1cc1n(c2=O)Cc2cc3cc(O)ccc3nc2-1
active: endpoint: mean survival time, dose: 2.0 mg/kg/injection, schedule: Q04DX003 (ip), vehicle: other 155 % of control | endpoint: mean survival time, dose: 4.0 mg/kg/injection, schedule: Q04DX003 (ip), vehicle: other 174 % of control | endpoint: median survival time, dose: 1.25 mg/kg/injection, schedule: Q04DX002 (ip), vehicle: saline 184 % of control | endpoint: median survival time, dose: 1.5 mg/kg/injection, schedule: Q04DX002 (ip), vehicle: saline 166 % of control | endpoint: median survival time, dose: 2.5 mg/kg/injection, schedule: Q04DX002 (ip), vehicle: saline 162 % of control and 253 % of control | endpoint: median survival time, dose: 3.0 mg/kg/injection, schedule: Q04DX002 (ip), vehicle: suspension in saline 150 % of control | endpoint: median survival time, dose: 5.0 mg/kg/injection, schedule: Q04DX002 (ip), vehicle: saline 232 % of control and 301 % of control | endpoint: median survival time, dose: 6.0 mg/kg/injection, schedule: Q04DX002 (ip), vehicle: suspension in saline 153 % of control | endpoint: median survival time, dose: 10.0 mg/kg/injection, schedule: Q04DX002 (ip), vehicle: saline 192 % of control and 209 % of control | endpoint: median survival time, dose: 12.0 mg/kg/injection, schedule: Q04DX002 (ip), vehicle: suspension in saline 228 % of control | endpoint: median survival time, dose: 20.0 mg/kg/injection, schedule: Q04DX002 (ip), vehicle: saline 184 % of control and 348 % of control
inactive: endpoint: mean survival time, dose: 16.0 mg/kg/injection, schedule: Q04DX003 (ip), vehicle: other 107 % of control | endpoint: median survival time, dose: 40.0 mg/kg/injection, schedule: Q04DX002 (ip), vehicle: saline 102 % of control | endpoint: median survival time, dose: 48.0 mg/kg/injection, schedule: Q04DX002 (ip), vehicle: suspension in saline 87 % of control
